# Results as given in ChEMBL document CHEMBL1201862, “PubChem BioAssay data set” (2004).
# Activity calls are given as the source filed them.
# Legend:
# [1] = system: H9c2; assay: cells; format: functional, cell-based; conditions: Rattus norvegicus, H9c2, Myocardium;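 note: confirmatory concentration-response retest of ultra-high-throughput screening hits for modulation of myocardial damage; cell death induced by hydrogen peroxide oxidative stress; compound pretreatment for 60 min then peroxide exposure for 2 h; potency is for protecting the cells against peroxide damage rather than for killing them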
# [2] = molecular target: Heat shock protein HSP 90-alpha (Homo sapiens, UniProt P07900); format: functional, organism-based
# [3] = molecular target: Luciferin 4-monooxygenase (Photinus pyralis, UniProt P08659); assay: inhibition of purified Photinus pyralis luciferase – biochemical, luminescence, dose response (AID 1891)
# [4] = Luminescence Cell-Based Dose Confirmation HTS to Identify Inhibitors of Platelet Dense Granule Release. [Related pubchem assays: 1663 (Primary HTS), 1678 (Summary of Project)]; format: functional
# [5] = P. falciparum Dd2 growth inhibitors, dose response, SYBR Green, cherry-picked samples (AID 1159567); format: functional, cell-based
# [6] = molecular target: T1, Calpain-2 catalytic subunit (Sus scrofa, UniProt P43367); assay: m-calpain protease blockers, concentration series – biochemical, fluorogenic peptide substrate, dose response (AID 1420); format: functional
# T1 sequence (P43367 whole entry): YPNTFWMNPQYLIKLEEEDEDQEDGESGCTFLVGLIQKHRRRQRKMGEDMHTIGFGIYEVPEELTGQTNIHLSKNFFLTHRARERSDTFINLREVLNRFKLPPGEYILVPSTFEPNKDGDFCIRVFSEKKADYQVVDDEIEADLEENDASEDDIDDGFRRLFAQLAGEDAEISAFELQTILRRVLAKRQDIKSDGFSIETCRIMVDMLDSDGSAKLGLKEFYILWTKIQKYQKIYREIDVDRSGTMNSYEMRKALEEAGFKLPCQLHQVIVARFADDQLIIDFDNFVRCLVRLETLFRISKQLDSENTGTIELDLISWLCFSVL
# [7] = molecular target: Fatty acid synthase (Homo sapiens, UniProt P49327); assay: inhibition of human FAS-TE enzyme activity – biochemical, kinetic fluorescence intensity, dose response (AID 624326); format: functional;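 note: rate of fluorescence rise from hydrolysis of a fluorogenic O-methyl fluorescein ester substrate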
# [8] = molecular target: Cytochrome P450 2D6 (Homo sapiens, UniProt P10635);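 note: CYP2D6 member of a cytochrome P450 panel assay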
# [9] = molecular target: T2, Cytochrome P450 1A2 (Homo sapiens, UniProt P05177);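 note: PubChem cytochrome P450 panel assay, CYP1A2 panel member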
# T2 sequence (P05177 whole entry): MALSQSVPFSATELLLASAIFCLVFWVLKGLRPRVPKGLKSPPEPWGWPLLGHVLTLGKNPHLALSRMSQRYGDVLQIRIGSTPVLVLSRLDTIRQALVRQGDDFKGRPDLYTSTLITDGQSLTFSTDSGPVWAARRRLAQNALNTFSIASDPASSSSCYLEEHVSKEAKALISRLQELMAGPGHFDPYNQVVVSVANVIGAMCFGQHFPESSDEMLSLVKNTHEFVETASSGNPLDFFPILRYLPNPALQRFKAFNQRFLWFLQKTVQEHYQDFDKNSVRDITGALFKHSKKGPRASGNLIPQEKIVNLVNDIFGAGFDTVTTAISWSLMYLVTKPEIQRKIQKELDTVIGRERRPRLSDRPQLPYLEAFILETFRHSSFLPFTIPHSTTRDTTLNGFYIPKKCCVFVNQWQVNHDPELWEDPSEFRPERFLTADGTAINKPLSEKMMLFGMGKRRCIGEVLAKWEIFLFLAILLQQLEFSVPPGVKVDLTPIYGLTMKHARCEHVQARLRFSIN
# [10] = system: Streptococcus sp. 'group A'; assay: Streptococcus pyogenes SK(-)GAS viability under kanamycin – luminescence, BacTiterGlo, confirmation, counter-screen for streptokinase expression inhibitor project, dose response (AID 1900); format: functional, organism-based
# [11] = system: Streptococcus; assay: GAS UMAA2166 growth inhibition – luminescence, BacTiterGlo, counter-screen for streptokinase expression inhibitor project, dose response (AID 1915); format: functional, organism-based;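 note: potency for reduction of bacterial viability or growth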
# [12] = Luminescence Cell-Based Dose Retest to Confirm Inhibitors of Cancer Stem Cells. [Related pubchem assays (depositor defined):AID2717, AID2721]; format: functional; conditions: Homo sapiens
# [13] = molecular target: Cytochrome P450 2C9 (Homo sapiens, UniProt P11712)
# [14] = microbe, parasite or virus in culture; format: functional; conditions: Mycobacterium tuberculosis
# [15] = molecular target: T3, Ubiquitin-conjugating enzyme E2 N (Homo sapiens, UniProt P61088); format: functional;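 note: Dose-response confirmation in a TR-FRET assay detecting UBC13-driven polyubiquitin chain formation, inhibition measured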
# T3 sequence (P61088 whole entry): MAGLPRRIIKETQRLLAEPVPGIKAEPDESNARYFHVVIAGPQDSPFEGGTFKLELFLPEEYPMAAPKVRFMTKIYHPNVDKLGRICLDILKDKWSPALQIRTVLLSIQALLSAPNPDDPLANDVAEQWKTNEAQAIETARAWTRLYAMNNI
# [16] = luciferase reporter signal suppression in cells – H4 neuroglioma cells, luminescence, dose response (AID 1990); format: functional, cell-based
# [17] = Luminescence Cell-Based Dose Response HTS to Identify Inhibitors of 5'UTR Stem-Loop Driven Prion Protein mRNA Translation in H4 Neuroglioblastoma Cells. [Related pubchem assays: 1827 (Project Summary), 1813 (Primary HTS)]; format: functional
# [18] = alpha-synuclein stem-loop luciferase translation blockers – H4 neuroglioma cells, luminescence, confirmation (AID 1988); format: functional, cell-based
# [19] = molecular target: T4, Heat shock factor protein 1 (Mus musculus, UniProt P38532); assay: enhancement of HSF1-driven luciferase signal – cell-based, NIH3T3, luminescence, dose retest, confirmation (AID 435004); format: functional;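 note: stress induced by proteasome inhibitor MG132 added 30 min after compound; luciferase reporter driven by HSF1 response element in NIH3T3 cells; actives raise luminescence as potentiators of the MG132 stress response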
# T4 sequence (P38532 whole entry): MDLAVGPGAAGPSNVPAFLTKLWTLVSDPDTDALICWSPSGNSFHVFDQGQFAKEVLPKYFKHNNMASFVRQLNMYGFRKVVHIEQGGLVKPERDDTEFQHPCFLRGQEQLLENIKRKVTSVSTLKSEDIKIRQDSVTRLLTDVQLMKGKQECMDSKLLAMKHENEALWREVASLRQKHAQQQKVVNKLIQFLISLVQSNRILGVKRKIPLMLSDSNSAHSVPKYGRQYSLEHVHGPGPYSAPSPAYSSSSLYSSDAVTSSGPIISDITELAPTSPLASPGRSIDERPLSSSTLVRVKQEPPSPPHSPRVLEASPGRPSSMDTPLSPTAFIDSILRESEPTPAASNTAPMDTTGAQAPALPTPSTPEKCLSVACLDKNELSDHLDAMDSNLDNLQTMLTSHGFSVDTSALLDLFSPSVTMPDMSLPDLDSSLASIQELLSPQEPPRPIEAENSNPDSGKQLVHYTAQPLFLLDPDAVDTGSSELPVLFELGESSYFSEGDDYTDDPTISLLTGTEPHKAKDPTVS
# [20] = molecular target: Cytochrome P450 2C19 (Homo sapiens, UniProt P33261); assay: Cytochrome panel assay with activity outcomes. Panel member name: p450-cyp2c19 Compounds with AC50 equal or less than 10 uM are considered active; format: functional; conditions: read-out: AC50
# [21] = molecular target: Cytochrome P450 3A4 (Homo sapiens, UniProt P08684);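 note: CYP3A4 tested as one member of a cytochrome P450 panel screen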
# Chain of Cytochrome P450 3A4 (P08684 whole entry): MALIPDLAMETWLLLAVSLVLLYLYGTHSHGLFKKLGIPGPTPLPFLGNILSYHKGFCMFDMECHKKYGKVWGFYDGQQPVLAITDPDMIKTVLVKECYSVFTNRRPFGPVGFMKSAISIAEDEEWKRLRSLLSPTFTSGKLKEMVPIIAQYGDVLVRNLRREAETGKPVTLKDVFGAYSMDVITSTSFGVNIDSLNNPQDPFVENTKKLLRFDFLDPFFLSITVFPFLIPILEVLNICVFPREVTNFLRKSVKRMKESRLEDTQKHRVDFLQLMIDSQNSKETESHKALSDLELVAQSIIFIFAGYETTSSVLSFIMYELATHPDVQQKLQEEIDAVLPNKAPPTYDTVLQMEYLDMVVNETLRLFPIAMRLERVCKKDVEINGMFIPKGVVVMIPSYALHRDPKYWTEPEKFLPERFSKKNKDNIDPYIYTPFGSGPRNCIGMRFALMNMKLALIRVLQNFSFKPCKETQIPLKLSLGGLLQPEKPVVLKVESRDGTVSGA
# Chain of Cytochrome P450 2D6 (P10635 whole entry): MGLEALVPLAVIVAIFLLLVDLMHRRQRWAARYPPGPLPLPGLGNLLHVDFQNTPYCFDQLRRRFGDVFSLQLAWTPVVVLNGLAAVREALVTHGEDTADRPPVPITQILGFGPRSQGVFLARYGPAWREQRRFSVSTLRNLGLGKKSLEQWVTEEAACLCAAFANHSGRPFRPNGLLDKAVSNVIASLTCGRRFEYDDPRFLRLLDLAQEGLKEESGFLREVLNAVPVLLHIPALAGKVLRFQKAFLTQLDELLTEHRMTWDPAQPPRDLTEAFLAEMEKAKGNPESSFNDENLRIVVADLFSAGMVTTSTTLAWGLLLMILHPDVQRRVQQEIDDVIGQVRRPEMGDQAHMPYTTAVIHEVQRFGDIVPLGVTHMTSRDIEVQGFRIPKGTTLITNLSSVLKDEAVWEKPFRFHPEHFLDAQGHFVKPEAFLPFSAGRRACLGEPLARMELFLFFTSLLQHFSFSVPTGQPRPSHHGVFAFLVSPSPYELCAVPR
# Chain of Luciferin 4-monooxygenase (P08659 whole entry): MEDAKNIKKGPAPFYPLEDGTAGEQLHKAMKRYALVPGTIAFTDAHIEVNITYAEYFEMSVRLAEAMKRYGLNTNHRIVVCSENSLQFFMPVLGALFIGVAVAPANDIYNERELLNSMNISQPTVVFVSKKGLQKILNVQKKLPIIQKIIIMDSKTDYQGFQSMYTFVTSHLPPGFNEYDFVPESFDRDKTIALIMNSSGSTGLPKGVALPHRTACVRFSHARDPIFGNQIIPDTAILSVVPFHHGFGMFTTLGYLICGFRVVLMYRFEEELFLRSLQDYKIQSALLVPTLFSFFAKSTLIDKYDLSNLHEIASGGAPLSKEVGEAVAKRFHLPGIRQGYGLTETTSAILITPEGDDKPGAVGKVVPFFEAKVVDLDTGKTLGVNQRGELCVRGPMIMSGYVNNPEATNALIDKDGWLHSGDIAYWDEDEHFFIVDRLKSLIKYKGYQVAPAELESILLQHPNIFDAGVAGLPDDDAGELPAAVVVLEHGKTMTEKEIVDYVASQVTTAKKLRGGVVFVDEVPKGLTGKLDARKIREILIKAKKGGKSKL
# Chain of Cytochrome P450 2C19 (P33261 whole entry): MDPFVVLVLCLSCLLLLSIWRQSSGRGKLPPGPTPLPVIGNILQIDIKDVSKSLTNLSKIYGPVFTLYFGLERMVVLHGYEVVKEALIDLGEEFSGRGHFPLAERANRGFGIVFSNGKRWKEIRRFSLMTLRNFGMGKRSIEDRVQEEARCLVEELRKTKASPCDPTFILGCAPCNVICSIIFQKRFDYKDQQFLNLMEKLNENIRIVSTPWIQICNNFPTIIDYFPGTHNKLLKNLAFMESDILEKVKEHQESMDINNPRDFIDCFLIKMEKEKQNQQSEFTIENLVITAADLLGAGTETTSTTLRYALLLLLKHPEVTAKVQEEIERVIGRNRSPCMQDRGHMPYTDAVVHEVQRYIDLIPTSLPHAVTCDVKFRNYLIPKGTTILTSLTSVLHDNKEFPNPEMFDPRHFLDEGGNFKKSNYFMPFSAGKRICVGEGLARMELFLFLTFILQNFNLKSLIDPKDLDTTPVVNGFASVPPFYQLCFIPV
# Chain of Cytochrome P450 2C9 (P11712 whole entry): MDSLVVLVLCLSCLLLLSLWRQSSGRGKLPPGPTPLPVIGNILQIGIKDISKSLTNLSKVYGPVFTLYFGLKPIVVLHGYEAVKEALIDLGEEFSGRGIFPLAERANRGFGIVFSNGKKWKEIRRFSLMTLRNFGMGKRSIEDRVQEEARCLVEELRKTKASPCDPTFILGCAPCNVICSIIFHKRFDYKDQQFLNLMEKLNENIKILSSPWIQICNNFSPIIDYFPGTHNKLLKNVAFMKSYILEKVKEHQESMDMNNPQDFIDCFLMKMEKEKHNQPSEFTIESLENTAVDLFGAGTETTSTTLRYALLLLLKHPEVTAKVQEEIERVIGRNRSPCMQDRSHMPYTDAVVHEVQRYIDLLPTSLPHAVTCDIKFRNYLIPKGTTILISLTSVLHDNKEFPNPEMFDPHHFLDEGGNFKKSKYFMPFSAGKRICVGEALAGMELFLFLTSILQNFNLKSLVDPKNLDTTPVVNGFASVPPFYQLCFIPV
# Chain of Fatty acid synthase (P49327 whole entry): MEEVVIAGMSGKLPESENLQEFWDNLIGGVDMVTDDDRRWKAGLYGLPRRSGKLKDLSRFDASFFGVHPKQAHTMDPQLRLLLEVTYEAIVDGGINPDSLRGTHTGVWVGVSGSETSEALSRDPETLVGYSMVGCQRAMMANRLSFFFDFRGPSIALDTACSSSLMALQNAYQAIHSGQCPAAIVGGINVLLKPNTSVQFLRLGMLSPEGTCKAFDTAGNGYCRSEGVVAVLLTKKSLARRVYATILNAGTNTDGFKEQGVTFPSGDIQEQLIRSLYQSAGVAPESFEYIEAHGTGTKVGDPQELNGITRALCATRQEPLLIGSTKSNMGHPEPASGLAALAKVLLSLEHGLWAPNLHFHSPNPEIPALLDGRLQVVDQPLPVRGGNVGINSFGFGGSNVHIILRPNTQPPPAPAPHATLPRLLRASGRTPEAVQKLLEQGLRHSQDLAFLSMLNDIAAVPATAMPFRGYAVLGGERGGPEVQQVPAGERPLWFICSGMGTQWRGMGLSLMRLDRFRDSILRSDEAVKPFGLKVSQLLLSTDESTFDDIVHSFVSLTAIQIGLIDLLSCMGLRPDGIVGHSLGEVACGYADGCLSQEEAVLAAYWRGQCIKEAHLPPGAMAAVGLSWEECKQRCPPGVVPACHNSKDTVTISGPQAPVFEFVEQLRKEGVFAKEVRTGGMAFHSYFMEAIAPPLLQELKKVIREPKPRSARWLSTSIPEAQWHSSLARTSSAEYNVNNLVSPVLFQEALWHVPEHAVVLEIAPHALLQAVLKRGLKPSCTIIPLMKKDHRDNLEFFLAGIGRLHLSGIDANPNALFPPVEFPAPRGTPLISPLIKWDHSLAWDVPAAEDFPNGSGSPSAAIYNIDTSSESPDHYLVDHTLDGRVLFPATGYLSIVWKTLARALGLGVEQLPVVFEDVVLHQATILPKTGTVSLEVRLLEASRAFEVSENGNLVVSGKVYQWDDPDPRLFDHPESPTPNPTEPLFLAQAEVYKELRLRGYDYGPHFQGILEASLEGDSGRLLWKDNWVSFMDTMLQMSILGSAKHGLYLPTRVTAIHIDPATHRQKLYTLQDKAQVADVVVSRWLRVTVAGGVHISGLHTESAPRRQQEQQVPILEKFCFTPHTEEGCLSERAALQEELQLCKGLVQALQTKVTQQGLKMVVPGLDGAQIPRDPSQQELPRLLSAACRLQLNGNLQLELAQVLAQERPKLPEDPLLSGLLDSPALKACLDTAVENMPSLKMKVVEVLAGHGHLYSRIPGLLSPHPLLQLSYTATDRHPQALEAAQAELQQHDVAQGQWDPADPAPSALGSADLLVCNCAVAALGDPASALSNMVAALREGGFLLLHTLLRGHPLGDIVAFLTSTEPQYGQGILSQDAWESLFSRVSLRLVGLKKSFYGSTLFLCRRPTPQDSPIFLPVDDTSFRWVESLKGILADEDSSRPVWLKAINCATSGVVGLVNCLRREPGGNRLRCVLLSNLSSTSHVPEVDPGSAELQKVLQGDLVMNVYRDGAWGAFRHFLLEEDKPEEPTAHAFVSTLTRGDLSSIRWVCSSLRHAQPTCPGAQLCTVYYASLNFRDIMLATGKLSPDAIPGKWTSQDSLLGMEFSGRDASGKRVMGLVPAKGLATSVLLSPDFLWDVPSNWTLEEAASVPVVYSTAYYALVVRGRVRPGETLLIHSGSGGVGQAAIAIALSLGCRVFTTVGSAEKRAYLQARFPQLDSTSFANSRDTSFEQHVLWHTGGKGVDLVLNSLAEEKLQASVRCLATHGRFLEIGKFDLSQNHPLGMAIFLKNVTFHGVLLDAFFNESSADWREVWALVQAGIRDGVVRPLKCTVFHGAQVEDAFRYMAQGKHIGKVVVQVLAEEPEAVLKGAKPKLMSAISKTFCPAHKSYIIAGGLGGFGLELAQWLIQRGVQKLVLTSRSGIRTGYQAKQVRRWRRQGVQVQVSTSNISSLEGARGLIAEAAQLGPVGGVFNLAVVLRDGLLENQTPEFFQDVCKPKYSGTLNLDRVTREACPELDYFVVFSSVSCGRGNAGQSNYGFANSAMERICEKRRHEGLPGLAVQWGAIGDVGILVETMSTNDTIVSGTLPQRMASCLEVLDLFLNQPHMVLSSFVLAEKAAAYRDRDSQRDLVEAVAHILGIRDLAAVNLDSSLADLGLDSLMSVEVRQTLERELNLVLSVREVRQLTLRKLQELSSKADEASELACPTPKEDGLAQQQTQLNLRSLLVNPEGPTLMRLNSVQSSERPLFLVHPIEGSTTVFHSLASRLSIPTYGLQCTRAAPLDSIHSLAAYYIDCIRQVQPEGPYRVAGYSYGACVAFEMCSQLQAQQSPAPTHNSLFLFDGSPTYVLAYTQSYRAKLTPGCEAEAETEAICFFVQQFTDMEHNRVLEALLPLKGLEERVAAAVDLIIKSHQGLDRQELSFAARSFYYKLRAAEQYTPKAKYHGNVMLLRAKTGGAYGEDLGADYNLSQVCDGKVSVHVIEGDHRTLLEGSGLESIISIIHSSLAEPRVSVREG
smiles,measurement,setting,value
O=C(COC(=O)Cc1nnc(O)c2ccccc12)Nc1ccc(Cl)cn1,IC50,[1],> 79 µM (inactive)
COc1ccc(/N=C/c2cc(Cc3ccccc3Cl)cc([N+](=O)[O-])c2O)cc1OC,AC50,[2],1.6 µM (active)
CCC(=O)N(C)CCc1cc2c(c(OC)c1/C=N/NC(=O)c1ccccc1O)OCO2,EC50,[3],> 112 µM (not active)
same,EC50,[4],> 112 µM (not active)
COc1ccc(CCNC(=O)C[S+]([O-])Cc2nc(-c3ccc(C)cc3)oc2C)cc1OC (configuration not stated),EC50,[3],> 112 µM (not active)
same,EC50,[4],> 112 µM (not active)
O=[N+]([O-])c1cc(-n2cnnn2)ccc1N1CCC(Cc2ccccc2)CC1,AC50,[2],4.38 µM (active)
C[C@H]1CN([C@@H](C)CO)C(=O)c2c(c3ccccc3n2C)-c2ccccc2CO[C@@H]1CN(C)Cc1cccc(O)c1,AC50,[5],3.24 µM (active)
CC(C)NC(=O)N1[C@H](C#N)[C@H](c2ccccc2-c2ccc(F)cc2)[C@@H]1CO,AC50,[5],3.57 µM (active)
CC(C)n1nc(C(=O)OCC(=O)c2c[nH]c3ccccc23)c2ccccc2c1=O,IC50,[6],0.91 µM (not active)
same,IC50,[1],27.3 µM (active)
O=C(NCC1CCCO1)c1cc([N+](=O)[O-])ccc1N1CCC(Cc2ccccc2)CC1 (configuration not stated),AC50,[2],4.28 µM (active)
CN(C(=O)Nc1ccc(Cl)cc1Cl)[C@H]1c2cc(Br)ccc2OC[C@H]1CO,IC50,[7],11.3 µM (active)
Oc1nc(NCc2ccccc2)nc2c1CCCC2,IC50,[1],52.3 µM (inactive)
CCn1c2ccccc2c2cc(/N=C3/SC(CC(=O)Nc4ccccc4)C(=O)N3C)ccc21 (configuration not stated),AC50,[8],7.08 µM (inconclusive)
same,AC50,[9],3.16 µM (inconclusive)
Oc1ccccc1C1=NN(c2ccccc2)C(c2ccccc2)C1 (configuration not stated),EC50,[10],4.06 µM (active)
same,EC50,[11],6.93 µM (active)
same,AC50,[12],1.29 µM (active)
same,AC50,[2],4.3 µM (active)
N#Cc1cccc(-c2nc3cnc(Nc4ccccc4)nc3n(C[C@H]3CCCO3)c2=O)c1,AC50,[8],1 µM (inconclusive)
same,AC50,[9],2 µM (inconclusive)
same,AC50,[13],10 µM (inconclusive)
CCOC(=O)c1ccc(/N=C2/S/C(=C\c3cc(C)n(-c4cccnc4)c3C)C(=O)N2C)cc1,CC50,[14],> 40 µM (active)
CC1CCN(c2nc3nonc3nc2Nc2ccc(F)cc2)CC1,IC50,[6],11.7 µM (not active)
Cc1ccc(-c2noc(CCC(=O)Nc3ccccc3N3CCN(C)CC3)n2)cc1,IC50,[15],> 20 µM (inactive)
CCc1c(C2(O)CCCCC2)[nH]c2ccc(C(F)(F)F)cc12,EC50,[16],60.5 µM (active)
same,EC50,[17],> 120 µM (not active)
same,EC50,[18],8.44 µM (active)
same,CC50,[14],27.1 µM (active)
same,AC50,[12],2.64 µM (active)
CCCCNC(=S)N(C)/N=C/c1ccc2c(c1)OCO2,CC50,[14],> 40 µM (active)
same,AC50,[12],2.04 µM (active)
Cc1ccc(S(=O)(=O)N(C)c2ccc(C)c([N+](=O)[O-])c2)cc1,IC50,[6],18.8 µM (not active)
same,EC50,[19],> 260 µM (inactive)
C[C@@H]1CN([C@@H](C)CO)C(=O)c2c(c3ccccc3n2C)-c2ccccc2CO[C@H]1CN(C)Cc1cccc(C(=O)Nc2ccccc2N)c1,AC50,[5],2.81 µM (active)
CSCCC(NC(=O)c1ccccc1Cl)C(=O)NNC(=O)c1csc(N2CCOCC2)n1 (configuration not stated),IC50,[15],> 20 µM (inactive)
CCCc1nc2oc(C(=O)OCC)c(N)c2c2c1COC(C)(C)C2,CC50,[14],> 40 µM (active)
Cc1ccc(C(C(=O)NCC2CCCO2)N(C(=O)c2snc(C(N)=O)c2N)c2ccc(C)c(C)c2)o1 (configuration not stated),IC50,[15],> 20 µM (inactive)
O=C(CCc1nc(O)c2ccccc2n1)NNC(=O)COc1cccc(F)c1,IC50,[1],> 79 µM (inactive)
CCn1c(SCC(=O)N2CCN(S(=O)(=O)c3ccccc3)CC2)nnc1-c1cccs1,AC50,[20],22.4 µM (inconclusive)
same,AC50,[8],17.8 µM (inconclusive)
CCOC(=O)C1CCN(C(c2cc3c(C)ccc(C)c3nc2O)c2nnnn2C2CCCCC2)CC1 (configuration not stated),IC50,[1],> 79 µM (inactive)
CC(C)C(=O)Nc1ncc(Cc2ccc(Cl)cc2)s1,IC50,[6],5.63 µM (not active)
O=C(Nc1ccccc1)c1nc[nH]c1C(=O)NCCCCNC(=O)c1nc[nH]c1C(=O)Nc1ccccc1,IC50,[1],> 79 µM (inactive)
C#CCNC(=O)C1=C[C@H](c2cn(C(C)=O)c3ccccc23)C[C@H](OCc2ccc(CO)cc2)O1,IC50,[15],> 20 µM (inactive)
COC(=O)[C@@]1(Cc2ccccc2)[C@H]2c3cc(C(=O)N4CCCC4)n(CCN4CNCC4=O)c3C[C@H]2CN1C(=O)c1ccccc1,AC50,[20],39.8 µM (inconclusive)
same,AC50,[8],39.8 µM (inconclusive)
same,AC50,[9],25.1 µM (inconclusive)
same,AC50,[21],1.58 µM (inconclusive)
COc1ccccc1N(C)S(=O)(=O)c1ccc(C(=O)Nc2ccc3nc(C)sc3c2)cc1,CC50,[14],38.1 µM (active)
N#Cc1cccc(-c2ccc([C@@H]3[C@@H]4CN(C(=O)C5CCC5)C[C@H]3N4)cc2)c1,AC50,[5],3.71 µM (active)
CCCC#Cc1ccc(CC[C@H]2O[C@H]3CC[C@H](CO)O[C@H]3C[C@@H]2n2cc(C(C)(C)O)nn2)cc1,AC50,[5],16.8 µM (active)
NC(=O)c1cccc(Nc2nc(C(N)COCc3ccccc3)cs2)n1 (configuration not stated),IC50,[1],19.8 µM (active)
Cc1c(CCC(=O)NCCCn2ccnc2)c(=O)oc2c(C)c3occ(C(C)(C)C)c3cc12,CC50,[14],22.1 µM (active)
Cc1cc(C(=O)N/N=C/c2c(CO)cnc(C)c2O)c2ccccc2n1,IC50,[1],> 79 µM (inactive)
FC(F)(F)c1nnc2ccc(NCc3ccccc3)nn12,IC50,[6],2.23 µM (active)
